# Structures can show the parent of a compound that is named as a salt. Where two headings read alike, the source gives them in different places.
# System: lymphocytic leukemia P388
# Assay: Lymphocytic leukemia P388 test (intraperitoneal administration)
# Assay type: in vivo, DBA/2 mice
# Description: The animals used are DBA/2 mice all of one sex, weighing a minimum of 17 g. and all within a 3 gram weight range. There are 5 or 6 animals per test group. The tumor transplant is by intraperitoneal injection of 0.1 ml. of dilute ascitic fluid containing 10^6 cells of lymphocytic leukemia P388. The test compounds are administered intraperitoneally on days one, 5 and 9 (relative to tumor inoculation) at various doses. The animals are weighed and survivors are recorded on a regular basis for 30 days. The median survival time and the ratio of survival time for treated (T)/control (C) animals are calculated.
# [1] = 0.39 mg./kg. i.p., days 1, 5 and 9
# [2] = 0.78 mg./kg. i.p., days 1, 5 and 9
# [3] = 1.56 mg./kg. i.p., days 1, 5 and 9
# [4] = 3.1 mg./kg. i.p., days 1, 5 and 9
# [5] = 6.2 mg./kg. i.p., days 1, 5 and 9
# [6] = 12.5 mg./kg. i.p., days 1, 5 and 9
# [7] = Mus musculus, P388, ip, 0.39 mg./kg. i.p., days 1, 5 and 9, efficacy ≥125%, read-out: T/C × 100
# [8] = Mus musculus, P388, ip, 0.78 mg./kg. i.p., days 1, 5 and 9, efficacy ≥125%, read-out: T/C × 100
# [9] = Mus musculus, P388, ip, 1.56 mg./kg. i.p., days 1, 5 and 9, efficacy ≥125%, read-out: T/C × 100
# [10] = Mus musculus, P388, ip, 3.1 mg./kg. i.p., days 1, 5 and 9, efficacy ≥125%, read-out: T/C × 100
# [11] = Mus musculus, P388, ip, 6.2 mg./kg. i.p., days 1, 5 and 9, efficacy ≥125%, read-out: T/C × 100
# [12] = Mus musculus, P388, ip, 12.5 mg./kg. i.p., days 1, 5 and 9, efficacy ≥125%, read-out: T/C × 100
# [13] = 100 mg./kg. i.p., days 1, 5 and 9
# [14] = 200 mg./kg. i.p., days 1, 5 and 9
# [15] = Mus musculus, P388, ip, 100 mg./kg. i.p., days 1, 5 and 9, efficacy ≥125%, read-out: T/C × 100
# [16] = Mus musculus, P388, ip, 200 mg./kg. i.p., days 1, 5 and 9, efficacy ≥125%, read-out: T/C × 100
# [17] = 3.12 mg./kg. i.p., days 1, 5 and 9
# [18] = 6.25 mg./kg. i.p., days 1, 5 and 9
# [19] = 25 mg./kg. i.p., days 1, 5 and 9
# [20] = 50 mg./kg. i.p., days 1, 5 and 9
# [21] = Mus musculus, P388, ip, 3.12 mg./kg. i.p., days 1, 5 and 9, efficacy ≥125%, read-out: T/C × 100
# [22] = Mus musculus, P388, ip, 6.25 mg./kg. i.p., days 1, 5 and 9, efficacy ≥125%, read-out: T/C × 100
# [23] = Mus musculus, P388, ip, 50 mg./kg. i.p., days 1, 5 and 9, efficacy ≥125%, read-out: T/C × 100
# [24] = Mus musculus, P388, ip, read-out: T/C × 100
# [25] = Mus musculus, P388, ip, 25 mg./kg. i.p., days 1, 5 and 9, efficacy ≥125%, read-out: T/C × 100
SMILES,Median Survival Time [2],Median Survival Time [3],Median Survival Time [4],Median Survival Time [5],Median Survival Time [6],response vs control in vivo at 0.78 mg/kg [8],response vs control in vivo at 1.56 mg/kg [9],response vs control in vivo at 3.1 mg/kg [10],response vs control in vivo at 6.2 mg/kg [11],response vs control in vivo at 12.5 mg/kg [12],Median Survival Time [13],Median Survival Time [14],response vs control in vivo at 100 mg/kg [15],response vs control in vivo at 200 mg/kg [16],Median Survival Time [18],Median Survival Time [19],Median Survival Time [20],response vs control in vivo at 6.25 mg/kg [22],response vs control in vivo at 50 mg/kg [23],response vs control in vivo at 25 mg/kg [25],also measured
"Cl.Cl.NCCNc1ccc(NCCN)c2c1C(=O)c1c(O)ccc(O)c1C2=O [1,4-Bis(2-aminoethylamino)-5,8-dihydroxyanthraquinone dihydrochloride]",24.5 days,20.0 days,30.0 days,15.5 days,8.0 days,223%,182%,273%,141%,73%,,,,,,,,,,,"Median Survival Time (0.19 mg./kg. i.p., days 1, 5 and 9): 23.0 days; Median Survival Time [1]: 25.5 days; response vs control in vivo at 0.19 mg/kg (Mus musculus, P388, ip, 0.19 mg./kg. i.p., days 1, 5 and 9, efficacy ≥125%, read-out: T/C × 100): 209%; response vs control in vivo at 0.39 mg/kg [7]: 232%"
"O=C1c2c(O)ccc(O)c2C(=O)c2c(NCCN3CCOCC3)ccc(NCCN3CCOCC3)c21 [1,4-Bis(2-morpholinoethylamino)-5,8-dihydroxyanthraquinone]",,,,,,,,,,,12.0 days,14.0 days,126%,147%,,,,,,,
"O=C1c2c(O)ccc(O)c2C(=O)c2c(NCCN3CC3)ccc(NCCN3CC3)c21 [1,4-Bis[2-(1-aziridino)ethylamino]-5,8-dihydroxyanthraquinone]",14.0 days,17.0 days,,,20.5 days,140%,170%,,,205%,28.5 days,,285%,,18.5 days,20.0 days,21.5 days,185%,215%,,Median Survival Time [17]: 19.5 days; response vs control in vivo at 3.12 mg/kg [21]: 195%; response vs control in vivo at 25 mg/kg [24]: 200%
"CC(O)CNCCNc1ccc(NCCNCC(C)O)c2c1C(=O)c1c(O)ccc(O)c1C2=O.Cl.Cl (stereo not shown) [1,4-Bis[2-(2-hydroxy-1-propylamino)ethylamino]-5,8-dihydroxyanthraquinone dihydrochloride]",19.0 days,19.0 days,22.0 days,23.0 days,24.0 days,190%,190%,220%,230%,240%,,,,,,12.0 days,,,,120%,Median Survival Time [1]: 17.5 days; response vs control in vivo at 0.39 mg/kg [7]: 175%
"CNCCNCCNc1ccc(NCCNCCNC)c2c1C(=O)c1c(O)ccc(O)c1C2=O.Cl.Cl.Cl.Cl [1,4-Bis[2-(2-methylaminoethylamino)ethylamino]-5,8-dihydroxyanthraquinone Tetrahydrochloride]",,13.0 days,,,17.0 days,,130%,,,170%,22.0 days,,220%,,16.0 days,19.5 days,22.0 days,160%,220%,195%,"Median Survival Time (1.12 mg./kg. i.p., days 1, 5 and 9): 13.5 days; response vs control in vivo at 1.12 mg/kg (Mus musculus, P388, ip, 1.12 mg./kg. i.p., days 1, 5 and 9, efficacy ≥125%, read-out: T/C × 100): 135%"
"Cl.Cl.O=C1c2c(O)ccc(O)c2C(=O)c2c(NCCNCCCO)ccc(NCCNCCCO)c21 [1,4-Bis[2-(3-hydroxy-1-propylamino)ethylamino]-5,8-dihydroxyanthraquinone dihydrochloride]",21.5 days,22.0 days,25.0 days,,> 30.0 days,195%,,227%,,> 273%,,,,,26.0 days,8.5 days,,236%,,77%,response vs control in vivo at 1.56 mg/kg [24]: 200%
"O=C1c2c(O)ccc(O)c2C(=O)c2c(NCCNCCN3CCOCC3)ccc(NCCNCCN3CCOCC3)c21 [1,4-Bis[2-[2-(1-morpholino)ethylamino]ethylamino]-5,8-dihydroxyanthraquinone tetrahydrochloride]",,,13.0 days,14.0 days,15.0 days,,,130%,140%,150%,20.0 days,9.5 days,,95%,,19.5 days,18.5 days,,185%,195%,response vs control in vivo at 100 mg/kg [24]: 200%
"Cl.Cl.O=C1c2c(O)ccc(O)c2C(=O)c2c(NCCN(CCO)CCO)ccc(NCCN(CCO)CCO)c21 [1,4-Bis[2-[di(β-hydroxyethyl)amino]ethylamino]-5,8-dihydroxyanthraquinone dihydrochloride]",14.5 days,16.0 days,19.0 days,18.5 days,18.5 days,161%,178%,211%,206%,206%,22.0 days,> 30.0 days,244%,> 333%,,21.5 days,20.5 days,,228%,239%,
"Cl.Cl.O=C1c2c(O)ccc(O)c2C(=O)c2c(NCCCNCCO)ccc(NCCCNCCO)c21 [1,4-Bis[3-(2-hydroxyethylamino)-1-propylamino]-5,8-dihydroxyanthraquinone dihydrochloride]",15.0 days,16.0 days,,,22.5 days,136%,145%,,,205%,12.5 days,,114%,,19.0 days,26.5 days,32.0 days,173%,291%,241%,Median Survival Time [17]: 19.0 days; response vs control in vivo at 3.12 mg/kg [21]: 173%
"O=C1C2=C(NCCN3CCOCC3)CCC(NCCN3CCOCC3)=C2C(=O)c2c(O)ccc(O)c21 [Leuco-1,4-bis(2-morpholinoethylamino)-5,8-dihydroxyanthraquinone]",,,,,,,,,,,12.0 days,13.0 days,126%,137%,,12.0 days,11.0 days,,116%,126%,
